The values that follow come from patent US10508104B2, “6-hydroxy-5-(phenyl/heteroarylsulfonyl)pyrimidin-4(1H)-one as APJ agonists” (Bristol-Myers Squibb Company, priority 2016, dated 2019).

human APJ receptor, sequence (P35414 whole entry): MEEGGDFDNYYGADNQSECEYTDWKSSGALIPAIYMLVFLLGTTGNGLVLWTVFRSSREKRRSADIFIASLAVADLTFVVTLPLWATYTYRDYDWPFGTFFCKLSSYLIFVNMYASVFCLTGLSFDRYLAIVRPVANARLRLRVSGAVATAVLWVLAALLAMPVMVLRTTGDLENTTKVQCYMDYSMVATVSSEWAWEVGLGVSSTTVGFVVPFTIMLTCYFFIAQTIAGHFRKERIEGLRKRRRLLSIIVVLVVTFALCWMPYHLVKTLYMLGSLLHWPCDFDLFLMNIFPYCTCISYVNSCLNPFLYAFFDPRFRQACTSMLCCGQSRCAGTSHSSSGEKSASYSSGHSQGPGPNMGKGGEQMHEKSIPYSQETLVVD

One assay concerns the target human APJ receptor (Homo sapiens (Human), UniProt P35414). Put plainly: Intracellular cAMP accumulation assay (APJ hcAMP, HTRF). In kind it is cell-based. The following applies: HEK293 cells stably expressing human APJ receptor; inhibition of forskolin-mediated cAMP production; read-out: Human APJ cAMP EC50 Potency range. Put shortly: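 HEK293 cells stably expressing human APJ, 5,000 per well, incubated 30 min at rt with compound, […] and 2 μM forskolin. cAMP measured by HTRF against a cAMP standard curve as inhibition of forskolin-driven production. EC50 from variable-slope sigmoidal fit.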
For `COc1cccc(OC)c1-n1c(-c2ccc(F)cc2)nc(=O)c(S(=O)(=O)c2ccc(Br)cc2)c1O` [Example 269, 5-((4-Bromophenyl)sulfonyl)-1-(2,6-dimethoxyphenyl)-2-(4-fluorophenyl)-6-hydroxypyrimidin-4(1H)-one], the 50% effective concentration (EC50) lay in the range of 100 to 300 nM. Regarding `COc1cccc(OC)c1-n1c(-c2ccc(F)cc2)nc(=O)c(S(=O)(=O)c2ccc(-c3cccnc3C)cc2)c1O` [Example 271, 1-(2,6-Dimethoxyphenyl)-2-(4-fluorophenyl)-6-hydroxy-5-((4-(2-methylpyridin-3-yl)phenyl)sulfonyl)pyrimidin-4(1H)-one], the half-maximal effective concentration (EC50) lay in the range of 0.01 to 10 nM.

In the case of `COc1cccc(OC)c1-n1c(-c2ccc(F)cc2)nc(=O)c(S(=O)(=O)c2ccc(-n3cc(Cl)ccc3=O)cc2)c1O` [Example 275, 5-((4-(5-Chloro-2-oxopyridin-1 (2H)-yl)phenyl)sulfonyl)-1-(2,6-dimethoxyphenyl)-2-(4-fluorophenyl)-6-hydroxypyrimidin-4(1H)-one], the concentration giving a half-maximal response (EC50) lay within 0.01 to 10 nM. Same read-out and setting: in the case of `COc1cccc(OC)c1-n1c(-c2ccc(F)cc2)nc(=O)c(S(=O)(=O)c2ccc(C3CC3)cc2)c1O` [Example 278, 5-((4-Cyclopropylphenyl)sulfonyl)-1-(2,6-dimethoxyphenyl)-2-(4-fluorophenyl)-6-hydroxypyrimidin-4(1H)-one] it was 10 to 100 nM; in that of `CC[C@@H](c1ccccc1)n1c(C2CCCC2)nc(=O)c(S(=O)(=O)c2ccc(Br)cc2)c1O` [Example 279, (S)-5-((4-Bromophenyl)sulfonyl)-2-cyclopentyl-6-hydroxy-1-(1-phenylpropyl)pyrimidin-4(1H)-one], 10 to 100 nM.

Still in this assay, the particulars now being: human APJ, cAMP accumulation; read-out: Human APJ cAMP EC50 Potency range.
In the case of `CCCCc1nc(=O)c(S(=O)(=O)c2ccc(-c3ccc(F)nc3C)cc2)c(O)n1[C@@H](CC)c1cccc2c1OCO2` [Example 264, 1-[(1S)-1-(2H-1,3-benzodioxol-4-yl)propyl]-2-butyl-5-[4-(6-fluoro-2-methylpyridin-3-yl)benzenesulfonyl]-6-hydroxy-1,4-dihydropyrimidin-4-one], the EC50 fell in the range of 0.01 to 10 nM.

As for `CCCCc1nc(=O)c(S(=O)(=O)c2ccc(-c3ccncc3C)cc2)c(O)n1[C@@H](CC)c1ccc(C#N)cc1` [Example 265, 4-[(1S)-1-{2-butyl-6-hydroxy-5-[4-(3-methylpyridin-4-yl)benzenesulfonyl]-4-oxo-1,4-dihydropyrimidin-1-yl}propyl]benzonitrile], the EC50 lay within 0.01 to 10 nM. Same read-out and setting: the figure for `CCCCc1nc(=O)c(S(=O)(=O)c2ccc(-c3cccnc3C)cc2)c(O)n1[C@@H](CC)c1ccc(C#N)cc1` [Example 266, 4-[(1S)-1-{2-butyl-6-hydroxy-5-[4-(2-methylpyridin-3-yl)benzenesulfonyl]-4-oxo-1,4-dihydropyrimidin-1-yl}propyl]benzonitrile] is 0.01 to 10 nM. Take `CCCCc1nc(=O)c(S(=O)(=O)c2ccc(-c3ccc(F)nc3C)cc2)c(O)n1[C@@H](CC)c1ccc(C#N)cc1` [Example 267, 4-[(1S)-1-{2-butyl-5-[4-(6-fluoro-2-methylpyridin-3-yl)benzenesulfonyl]-6-hydroxy-4-oxo-1,4-dihydropyrimidin-1-yl}propyl]benzonitrile]: the EC50 was 0.01 to 10 nM. Still for that read-out and setting: the figure for `CCCCc1nc(=O)c(S(=O)(=O)c2ccc(-c3ccnc(F)c3C)cc2)c(O)n1[C@@H](CC)c1ccc(C#N)cc1` [Example 268, 4-[(1S)-1-{2-butyl-5-[4-(2-fluoro-3-methylpyridin-4-yl)benzenesulfonyl]-6-hydroxy-4-oxo-1,4-dihydropyrimidin-1-yl}propyl]benzonitrile] is 0.01 to 10 nM; for `COc1cccc(OC)c1-n1c(-c2cncc(C)c2)nc(=O)c(S(=O)(=O)c2ccc(Br)cc2)c1O` [Example 270, 5-(4-bromobenzenesulfonyl)-1-(2,6-dimethoxyphenyl)-6-hydroxy-2-(5-methylpyridin-3-yl)-1,4-dihydropyrimidin-4-one] it is 10 to 100 nM.

As for `COc1cccc(OC)c1-n1c(-c2cncc(C)c2)nc(=O)c(S(=O)(=O)c2ccc(-c3cccnc3C)cc2)c1O` [Example 272, 1-(2,6-dimethoxyphenyl)-6-hydroxy-2-(5-methylpyridin-3-yl)-5-[4-(2-methylpyridin-3-yl)benzenesulfonyl]-1,4-dihydropyrimidin-4-one], the concentration for a half-maximal effect (EC50) lay within 0.01 to 10 nM. Regarding `COc1cccc(OC)c1-n1c(-c2ccc(F)cc2)nc(=O)c(S(=O)(=O)c2ccc(-c3ccncc3C)cc2)c1O` [Example 273], the EC50 lay in the range of 0.01 to 10 nM. On the same count and under the same terms, in the case of `COc1cccc(OC)c1-n1c(-c2cncc(C)c2)nc(=O)c(S(=O)(=O)c2ccc(-c3ccnc(F)c3C)cc2)c1O` [Example 274, 1-(2,6-dimethoxyphenyl)-5-[4-(2-fluoro-3-methylpyridin-4-yl)benzenesulfonyl]-6-hydroxy-2-(5-methylpyridin-3-yl)-1,4-dihydropyrimidin-4-one] it was 0.01 to 10 nM; in that of `COc1cccc(OC)c1-n1c(-c2cncc(C)c2)nc(=O)c(S(=O)(=O)c2ccc(-n3cc(Cl)ccc3=O)cc2)c1O` [Example 276, 5-[4-(5-chloro-2-oxo-1,2-dihydropyridin-1-yl)benzenesulfonyl]-1-(2,6-dimethoxyphenyl)-6-hydroxy-2-(5-methylpyridin-3-yl)-1,4-dihydropyrimidin-4-one], 0.01 to 10 nM; in that of `COc1cccc(OC)c1-n1c(-c2cncc(C)c2)nc(=O)c(S(=O)(=O)c2ccc(C3CC3)cc2)c1O` [Example 277, 5-(4-cyclopropylbenzene-sulfonyl)-1-(2,6-dimethoxyphenyl)-6-hydroxy-2-(5-methylpyridin-3-yl)-1,4-dihydropyrimidin-4-one], 0.01 to 10 nM. On the same count and under the same terms, the figure for `CC[C@@H](c1ccccc1)n1c(C2CCCC2)nc(=O)c(S(=O)(=O)c2ccc(-c3ccc(F)nc3)cc2)c1O` [Example 280, 2-cyclopentyl-5-[4-(6-fluoropyridin-3-yl)benzenesulfonyl]-6-hydroxy-1-[(1S)-1-phenylpropyl]-1,4-dihydropyrimidin-4-one] is 0.01 to 10 nM.

For the compound `CC[C@@H](c1ccccc1)n1c(C2CCCC2)nc(=O)c(S(=O)(=O)c2ccc(-c3cncc(C)c3)cc2)c1O` [Example 281, 2-cyclopentyl-6-hydroxy-5-[4-(5-methylpyridin-3-yl)benzenesulfonyl]-1-[(1S)-1-phenylpropyl]-1,4-dihydropyrimidin-4-one], the EC50 lay in the range of 0.01 to 10 nM.

Consider `CC[C@@H](c1ccccc1)n1c(C2CCCC2)nc(=O)c(S(=O)(=O)c2ccc(-c3ccncc3C)cc2)c1O` [Example 282, 2-cyclopentyl-6-hydroxy-5-[4-(3-methylpyridin-4-yl)benzenesulfonyl]-1-[(1S)-1-phenylpropyl] 1,4-dihydropyrimidin-4-one], for which the EC50 lay within 0.01 to 10 nM. Still for that read-out and setting: in the case of `CC[C@@H](c1ccccc1)n1c(C2CCCC2)nc(=O)c(S(=O)(=O)c2ccc(-c3cncc(F)c3)cc2)c1O` [Example 283, 2-cyclopentyl-5-[4-(5-fluoropyridin-3-yl)benzenesulfonyl]-6-hydroxy-1-[(1S)-1-phenylpropyl]-1,4-dihydropyrimidin-4-one] it was 0.01 to 10 nM; in that of `CCCCc1nc(=O)c(S(=O)(=O)c2ccc(Br)cc2)c(O)n1[C@@H](CC)c1ccccc1` [Example 284, 5-(4-bromobenzenesulfonyl)-2-butyl-6-hydroxy-1-[(1S)-1-phenylpropyl]-1,4-dihydropyrimidin-4-one], 0.01 to 10 nM.

The term EC50 denotes the concentration needed to bring the measured effect to its halfway point.
